Values quoted from earlier work as cited in US9625464B2, “Fluorescent probe for plasma cell identification and isolation, and plasma cell identification or isolation method using the probe” (NATIONAL UNIVERSITY CORPORATION UNIVERSITY OF TOYAMA, priority 2010, dated 2017).

Molecular target: ATP-sensitive K+ channel
Conditions: read-out: dissociation constant to ATP-sensitive K+ channel

Kd: 0.1 to 3.6 nM
Compound: COc1ccc(Cl)cc1C(=O)NCCc1ccc(S(=O)(=O)NC(=O)NC2CCCCC2)cc1 [glibenclamide]
